Results on 14 compounds are retold here after patent publication US20240025907A1, “QUINAZOLINE PAN-KRas INHIBITORS” (Mirati Therapeutics, Inc., priority 2022, published 2024).

What all share (assay type): cell-based
Assay [1] has as its system KRas-mediated Phosphorylation of ERK in A549 cells. As to the kind of experiment: Cisbio HTRF pERK assay, A549 cells. The following applies: single point at 100 nM; for Inhibition (HTRF % at 100 nM) of KRas-mediated Phosphorylation of ERK, A549: A549 cells, 0.1 µM; for inhibition at 0.1 µM: Homo sapiens, A549, A549 cells.
Assay [2] has as its system KRas-mediated Phosphorylation of ERK in H358 cells. As to the kind of experiment: Cisbio HTRF pERK assay, H358 cells. The following applies: single point at 100 nM; for Inhibition (HTRF % at 100 nM) of KRas-mediated Phosphorylation of ERK, H358: H358 cells, 0.1 µM; for inhibition at 0.1 µM: Homo sapiens, NCI-H358, H358 cells. On the technique in general: Time-resolved FRET reads energy transfer from a long-lived donor to a nearby acceptor.

For assay [3], the system named is KRas-mediated Phosphorylation of ERK in H460 cells. The assay can be described thus: Cisbio HTRF pERK assay, H460 cells. To be noted: single point at 100 nM; for inhibition at 0.1 µM: Homo sapiens, NCI-H460, H460 cells.
Assay [4] relates to KRas-mediated Phosphorylation of ERK in HCT116 cells. As to the kind of experiment: Cisbio HTRF pERK assay, HCT116 cells. The following applies: single point at 100 nM; for inhibition at 0.1 µM: Homo sapiens, HCT-116, HCT116 cells.

Structures are written as SMILES.

Regarding `CCc1c(F)ccc2cc(O)cc(-c3c(F)cc4c(N5CCC[C@@](C)(O)C5)nc(OC[C@@]56CCCN5C[C@H](F)C6)nc4c3F)c12` (atropisomer, axis not shown; (aS)) [Example 69, (R)-1-((R)-7-(8-ethyl-7-fluoro-3-hydroxynaphthalen-1-yl)-6,8-difluoro-2-(((2R,7aS)-2-fluorotetrahydro-1H-pyrrolizin-7a(5H)-yl)methoxy)quinazolin-4-yl)-3-methylpiperidin-3-ol], the “Inhibition (HTRF % at 100 nM) of KRas-mediated Phosphorylation of ERK, A549” value in assay [1] was 84%. In assay [2], the “Inhibition (HTRF % at 100 nM) of KRas-mediated Phosphorylation of ERK, H358” value is reported as 101%.

As a reminder, the inhibition is the change of the read-out against control, counted positive when it falls. As to `CCc1c(F)ccc2cc(O)cc(-c3ccc4c(N5CCCC6(CNC(=O)N6)C5)nc(OCC5(CN(C)C)CC5)nc4c3F)c12` (stereo not shown) [Example 36, 7-(2-((1-((dimethylamino)methyl)cyclopropyl)methoxy)-7-(8-ethyl-7-fluoro-3-hydroxynaphthalen-1-yl)-8-fluoroquinazolin-4-yl)-1,3,7-triazaspiro[4.5]decan-2-one], the inhibition at 0.1 µM is 25% in assay [3] and -22% in assay [4].

For the compound `CCc1c(F)ccc2cc(O)cc(-c3ccc4c(N5CCCn6nncc6C5)nc(OC[C@@]56CCCN5C[C@H](F)C6)nc4c3F)c12` [Example 44], the inhibition at 0.1 µM was -9% in assay [1] and 3% in assay [2].

For the compound `CCc1c(F)ccc2cc(O)cc(-c3c(F)cc4c(N5CCCn6nncc6C5)nc(OC[C@@]56CCCN5C[C@H](F)C6)nc4c3F)c12` [Example 61, 4-(4-(7,8-dihydro-4H-[1,2,3]triazolo[1,5-a][1,4]diazepin-5(6H)-yl)-6,8-difluoro-2-(((2R,7aS)-2-fluorotetrahydro-1H-pyrrolizin-7a(5H)-yl)methoxy)quinazolin-7-yl)-5-ethyl-6-fluoronaphthalen-2-ol], the inhibition at 0.1 µM is 36% in assay [3] and 9% in assay [4].

As to `CCc1c(F)ccc2cc(O)cc(-c3c(F)cc4c(N5CCCn6nc(C(=O)N7CCCC7)cc6C5)nc(OC[C@@]56CCCN5C[C@H](F)C6)nc4c3F)c12` [Example 58, (5-(7-(8-ethyl-7-fluoro-3-hydroxynaphthalen-1-yl)-6,8-difluoro-2-(((2R,7aS)-2-fluorotetrahydro-1H-pyrrolizin-7a(5H)-yl)methoxy)quinazolin-4-yl)-5,6,7,8-tetrahydro-4H-pyrazolo[1,5-a][1,4]diazepin-2-yl)(pyrrolidin-1-yl)methanone], the inhibition at 0.1 µM is 58% in assay [3] and 12% in assay [4].

Consider `CCc1c(F)ccc2cc(O)cc(-c3ccc4c(N5CCCC6(CNS(=O)(=O)N6)C5)nc(OCC5(CN(C)C)CC5)nc4c3F)c12` (stereo not shown) [Example 37, 7-(2-((1-((dimethylamino)methyl)cyclopropyl)methoxy)-7-(8-ethyl-7-fluoro-3-hydroxynaphthalen-1-yl)-8-fluoroquinazolin-4-yl)-2-thia-1,3,7-triazaspiro[4.5]decane 2,2-dioxide], for which the inhibition at 0.1 µM amounted to 28% in assay [3] and 0% in assay [4].

For the compound `CCc1c(F)ccc2cc(O)cc(-c3c(F)cc4c(N5CC6C(=O)NC(=O)C6C5)nc(OCC5(CN(C)C)CC5)nc4c3F)c12` (stereo not shown) [Example 52, 5-(2-((1-((dimethylamino)methyl)cyclopropyl)methoxy)-7-(8-ethly-7-fluoro-3-hydroxynaphthalen-1-yl)-6,8-difluoroquinazolin-4-yl)tetrahydropyrrolo[3,4-c]pyrrole-1,3(2H,3aH)-dione], the results for the inhibition at 0.1 µM in assay [1] and in assay [2] were 33% and 6%, respectively.

`CCc1c(F)ccc2cc(O)cc(-c3c(F)cc4c(N5CCCn6nc(C(=O)N(C)C)cc6C5)nc(OC[C@@]56CCCN5C[C@H](F)C6)nc4c3F)c12` (atropisomer, axis not shown; (aS)) [Example 64, 5-((S)-7-(8-ethyl-7-fluoro-3-hydroxynaphthalen-1-yl)-6,8-difluoro-2-(((2R,7aS)-2-fluorohexahydro-1H-pyrrolizin-7a-yl)methoxy)quinazolin-4-yl)-N,N-dimethyl-5,6,7,8-tetrahydro-4H-pyrazolo[1,5-a][1,4]diazepine-2-carboxamide]: the “Inhibition (HTRF % at 100 nM) of KRas-mediated Phosphorylation of ERK, H460” value in assay [3] (H460 cells, 0.1 µM) was found to be 3%. In assay [4] (HCT116 cells, 0.1 µM), the “Inhibition (HTRF % at 100 nM) of KRas-mediated Phosphorylation of ERK, HCT116” value is listed as 14%.

Regarding `CCc1c(F)ccc2cc(O)cc(-c3c(F)cc4c(N5CCCC6(CC(O)C6)C5)nc(OCC5(CN(C)C)CC5)nc4c3F)c12` (stereo not shown) [Example 53, 6-(2-((1-((dimethylamino)methyl)cyclopropyl)methoxy)-7-(8-ethyl-7-fluoro-3-hydroxynaphthalen-1-yl)-6,8-difluoroquinazolin-4-yl)-6-azaspiro[3.5]nonan-2-ol], the inhibition at 0.1 µM in assay [1] is 27%; in assay [2] it was 40%.

As to `CCc1c(F)ccc2cc(O)cc(-c3c(F)cc4c(N5CCC[C@@](C)(O)C5)nc(OC[C@@]56CCCN5C[C@H](F)C6)nc4c3F)c12` (atropisomer, axis not shown; (aS)) [Example 70, (R)-1-((S)-7-(8-ethyl-7-fluoro-3-hydroxynaphthalen-1-yl)-6,8-difluoro-2-(((2R,7aS)-2-fluorotetrahydro-1H-pyrrolizin-7a(5H)-yl)methoxy)quinazolin-4-yl)-3-methylpiperidin-3-ol], in assay [1], the “Inhibition (HTRF % at 100 nM) of KRas-mediated Phosphorylation of ERK, A549” value was determined as 6%. Besides, the “Inhibition (HTRF % at 100 nM) of KRas-mediated Phosphorylation of ERK, H358” value in assay [2] came to 24%.

Take `CCc1c(F)ccc2cc(O)cc(-c3c(F)cc4c(N5CCCC6(C5)NC(=O)NC6=O)nc(OCC5(CN(C)C)CC5)nc4c3F)c12` (stereo not shown) [Example 54, 7-(2-((1-((dimethylamino)methyl)cyclopropyl)methoxy)-7-(8-ethyl-7-fluoro-3-hydroxynaphthalen-1-yl)-6,8-difluoroquinazolin-4-yl)-1,3,7-triazaspiro[4.5]decane-2,4-dione]: the inhibition at 0.1 µM is 61% in assay [1] and 100% in assay [2].

In the case of `CCc1c(F)ccc2cc(O)cc(-c3c(F)cc4c(N5CCCC6(CC(=O)N6)C5)nc(OCC5(CN(C)C)CC5)nc4c3F)c12` (stereo not shown) [Example 51, 6-(2-((1-((dimethylamino)methyl)cyclopropyl)methoxy)-7-(8-ethyl-7-fluoro-3-hydroxynaphthalen-1-yl)-6,8-difluoroquinazolin-4-yl)-1,6-diazaspiro[3.5]nonan-2-one], the figures for the inhibition at 0.1 µM in assay [1] and in assay [2] were 6% and 67%, respectively.

Turning to `CCc1c(F)ccc2cc(O)cc(-c3c(F)cc4c(N5CCCn6nc(C(=O)N(C)C)cc6C5)nc(OCC5(CN(C)C)CC5)nc4c3F)c12` [Example 55, 5-(2-((1-((dimethylamino)methyl)cyclopropyl)methoxy)-7-(8-ethyl-7-fluoro-3-hydroxynaphthalen-1-yl)-6,8-difluoroquinazolin-4-yl)-N,N-dimethyl-5,6,7,8-tetrahydro-4H-pyrazolo[1,5-a][1,4]diazepine-2-carboxamide], the figures for the inhibition at 0.1 µM in assay [1] and in assay [2] were -13% and 2%, respectively.

With `CCc1c(F)ccc2cc(O)cc(-c3ccc4c(N5CCCC6(CC(=O)N6)C5)nc(OCC5(CN(C)C)CC5)nc4c3F)c12` (stereo not shown) [Example 38, 6-(2-((1-((dimethylamino)methyl)cyclopropyl)methoxy)-7-(8-ethyl-7-fluoro-3-hydroxynaphthalen-1-yl)-8-fluoroquinazolin-4-yl)-1,6-diazaspiro[3.5]nonan-2-one], the values for the inhibition at 0.1 µM in assay [1] and in assay [2] were 9% and 16%, respectively.
